Measured values taken from PMC8459745 (Bioorganic & medicinal chemistry letters, 2021).

Biological target: focal adhesion kinase (FAK) (Homo sapiens, UniProt Q05397)
Test: FAK kinase inhibition assay
Assay type: biochemical

focal adhesion kinase (FAK), sequence (Q05397 2-1052): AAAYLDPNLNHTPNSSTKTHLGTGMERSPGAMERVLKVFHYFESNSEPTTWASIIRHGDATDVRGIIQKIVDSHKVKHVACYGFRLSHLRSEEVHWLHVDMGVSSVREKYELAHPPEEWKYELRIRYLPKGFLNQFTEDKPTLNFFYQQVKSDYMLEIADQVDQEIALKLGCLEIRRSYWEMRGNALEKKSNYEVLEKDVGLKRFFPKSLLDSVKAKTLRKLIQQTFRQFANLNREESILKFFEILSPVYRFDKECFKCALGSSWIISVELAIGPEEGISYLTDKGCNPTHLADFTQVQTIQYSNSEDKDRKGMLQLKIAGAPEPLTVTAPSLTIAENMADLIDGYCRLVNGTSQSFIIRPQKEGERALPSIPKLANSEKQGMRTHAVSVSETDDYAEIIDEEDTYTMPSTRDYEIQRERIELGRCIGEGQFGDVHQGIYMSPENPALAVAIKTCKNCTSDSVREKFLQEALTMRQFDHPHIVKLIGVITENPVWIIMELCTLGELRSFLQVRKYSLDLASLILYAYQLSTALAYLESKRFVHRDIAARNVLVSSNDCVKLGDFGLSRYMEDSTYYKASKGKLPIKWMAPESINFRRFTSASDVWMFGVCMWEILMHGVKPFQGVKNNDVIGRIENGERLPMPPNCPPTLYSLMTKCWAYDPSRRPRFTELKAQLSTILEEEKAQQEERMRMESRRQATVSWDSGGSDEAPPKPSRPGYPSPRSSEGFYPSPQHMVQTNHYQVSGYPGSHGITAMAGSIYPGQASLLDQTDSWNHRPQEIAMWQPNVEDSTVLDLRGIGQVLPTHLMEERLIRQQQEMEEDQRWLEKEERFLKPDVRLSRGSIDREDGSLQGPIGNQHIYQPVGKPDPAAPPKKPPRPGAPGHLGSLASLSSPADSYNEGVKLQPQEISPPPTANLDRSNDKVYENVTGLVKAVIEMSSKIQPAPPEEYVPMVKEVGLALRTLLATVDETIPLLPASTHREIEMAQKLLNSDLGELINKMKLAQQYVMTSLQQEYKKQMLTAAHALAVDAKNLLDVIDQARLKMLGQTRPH

CONC(=O)c1ccccc1Nc1cc(Nc2cc(C)nn2C(C)C)ncc1Cl [GSK2256098]
IC50: 22.1 nM
